Consider ten molecules from ChEMBL document CHEMBL4196157, “Inhibition of Herpes Simplex Virus-1 Entry into Human Cells by Nonsaccharide Glycosaminoglycan Mimetics” (ACS Med Chem Lett, 2018).

The nature of assay [1]: (§1) Binding affinity to recombinant HSV1 glycoprotein D (21 to 339 residues) assessed as change in intrinsic tryptophan fluorescence by spectrofluorimetric method. The arrangement: species or system Human alphaherpesvirus 1.
The test system of assay [2] is Human alphaherpesvirus 1. Described as §1.
In assay [3] the test system is Human alphaherpesvirus 1. The experiment in a line: Antiviral activity against Herpes simplex virus 1 KOS infected in African green monkey Vero cells assessed as inhibition of plaque formation at 5 ug treated 1 hr prior to viral infection followed by compound washout and subsequent compound addition measured after 72 hrs by Giemsa staining based assay. The class given is functional, organism-based.

Assay [4] can be described thus: Binding affinity to HSV1 glycoprotein D. The arrangement: species or system Human alphaherpesvirus 1.

As a reminder, the Kd is the equilibrium constant for the complex coming apart.

The source made the active and inactive calls. The calls are words filed in the database; no cut-off is given here.

As to `O=C(OC1[C@@H](OC(=O)c2cc(OS(=O)(=O)O)cc(OS(=O)(=O)O)c2)[C@@H](OC(=O)c2ccc(OS(=O)(=O)O)cc2OS(=O)(=O)O)C(OC(=O)c2cc(OS(=O)(=O)O)cc(OS(=O)(=O)O)c2)[C@H](OC(=O)c2cc(OS(=O)(=O)O)cc(OS(=O)(=O)O)c2)[C@H]1OC(=O)c1cc(OS(=O)(=O)O)cc(OS(=O)(=O)O)c1)c1cc(OS(=O)(=O)O)cc(OS(=O)(=O)O)c1` (single isomer, unassigned), the Kd in assay [1] worked out at 112 nM. The %max in the assay on Human alphaherpesvirus 1 [2] came out at 328%. With `CC1OC[C@H]2O[C@H](OC(=O)c3cc(OS(=O)(=O)O)cc(OS(=O)(=O)O)c3)[C@H](OC(=O)c3cc(OS(=O)(=O)O)cc(OS(=O)(=O)O)c3)[C@@H](OC(=O)c3cc(OS(=O)(=O)O)cc(OS(=O)(=O)O)c3)[C@@H]2O1` (stereo partly drawn), the Kd in assay [1] is 26 nM. In the assay on Human alphaherpesvirus 1 [2], the %max was 87%.

On to `Cc1cc(Oc2cc3c(=O)c(OS(=O)(=O)O)c(-c4ccc(OS(=O)(=O)O)c(OS(=O)(=O)O)c4)oc3cc2OS(=O)(=O)O)c(C)cc1COc1cc(OS(=O)(=O)O)cc2oc(-c3ccc(OS(=O)(=O)O)c(OS(=O)(=O)O)c3)c(OS(=O)(=O)O)c(=O)c12`, for which, in assay [1], the Kd was found to be 22 nM. Also, the %max in the assay with Human alphaherpesvirus 1 [2] was -82%. With `Nc1nc2c(ncn2COCCO)c(=O)[nH]1`, in the assay with Human alphaherpesvirus 1 [3], the inhibition entry was “Active”. `O=C(O)C1=C[C@H](O)[C@@H](OS(=O)(=O)O)[C@H](O[C@H]2[C@H](O)[C@@H](NS(=O)(=O)O)[C@@H](O[C@H]3[C@H](O)[C@@H](OS(=O)(=O)O)[C@H](O[C@H]4[C@H](O)[C@@H](NS(=O)(=O)O)[C@@H](O[C@H]5[C@H](O)[C@@H](OS(=O)(=O)O)[C@H](O[C@H]6[C@H](OS(=O)(=O)O)[C@@H](NS(=O)(=O)O)[C@@H](O[C@H]7[C@H](O)[C@@H](OS(=O)(=O)O)[C@H](O[C@H]8[C@H](O)[C@@H](NS(=O)(=O)O)[C@@H](O)O[C@@H]8COS(=O)(=O)O)O[C@H]7C(=O)O)O[C@@H]6COS(=O)(=O)O)O[C@H]5C(=O)O)O[C@@H]4COS(=O)(=O)O)O[C@H]3C(=O)O)O[C@@H]2COS(=O)(=O)O)O1`: in assay [4], binding was characterised by a dissociation constant (Kd) of 18000 nM. For `O=C(O[C@@H]1[C@@H](OC(=O)c2cc(OS(=O)(=O)O)cc(OS(=O)(=O)O)c2)[C@H](OC(=O)c2cc(OS(=O)(=O)O)cc(OS(=O)(=O)O)c2)[C@@H](OC(=O)c2ccc(OS(=O)(=O)O)cc2OS(=O)(=O)O)[C@H](OC(=O)c2cc(OS(=O)(=O)O)cc(OS(=O)(=O)O)c2)[C@H]1OC(=O)c1cc(OS(=O)(=O)O)cc(OS(=O)(=O)O)c1)c1cc(OS(=O)(=O)O)cc(OS(=O)(=O)O)c1`, the equilibrium dissociation constant (Kd) in assay [1] is 8 nM. Besides, in the assay with Human alphaherpesvirus 1 [2], the %max turned out to be 53%. `CCOC(=O)c1c(C)oc2cc(OCc3ccccc3)c(OCCCOc3cc(OS(=O)(=O)O)cc4oc(-c5ccc(OS(=O)(=O)O)cc5)cc(=O)c34)cc12`: the equilibrium dissociation constant (Kd) in assay [1] was found to be 780 nM. Besides, the %max in the assay with Human alphaherpesvirus 1 [2] is -157%.

On to `O=S(=O)(O)OC[C@H]1O[C@@](COS(=O)(=O)O)(O[C@@H]2O[C@H](COS(=O)(=O)O)[C@@H](OS(=O)(=O)O)[C@H](OS(=O)(=O)O)[C@H]2OS(=O)(=O)O)[C@@H](OS(=O)(=O)O)[C@@H]1OS(=O)(=O)O`, for which the Kd in assay [1] was 150 nM. In the assay with Human alphaherpesvirus 1 [2], the %max is -52%. For `CCOC(=O)c1c(C)oc2cc(OCc3cccc(OS(=O)(=O)O)c3)c(OCc3oc4cc(OC)c(OS(=O)(=O)O)cc4c3C(=O)OCC)cc12` the same measures were 2220 nM and -112%. As to `CO[C@H]1O[C@H](COS(=O)(=O)O)[C@@H](O[C@@H]2O[C@@H](C(=O)O)[C@@H](O[C@H]3O[C@H](COS(=O)(=O)O)[C@@H](O[C@@H]4O[C@H](C(=O)O)[C@@H](O[C@H]5O[C@H](COS(=O)(=O)O)[C@@H](O)[C@H](O)[C@H]5NS(=O)(=O)O)[C@H](O)[C@H]4O)[C@H](OS(=O)(=O)O)[C@H]3NS(=O)(=O)O)[C@H](O)[C@H]2OS(=O)(=O)O)[C@H](O)[C@H]1NS(=O)(=O)O` [FONDAPARINUX SODIUM], in assay [1], the dissociation constant (Kd) was determined as 500 nM. In the assay with Human alphaherpesvirus 1 [2], the %max is -85%.
